We go through one compound from PMC10096391, “Discovery of N,4-Di(1H-pyrazol-4-yl)pyrimidin-2-amine-Derived CDK2 Inhibitors as Potential Anticancer Agents: Design, Synthesis, and Evaluation” (Molecules, 2023).

As usually defined, the GI50 is the concentration that inhibits growth by half.

The target in one assay is CDK1/cyclin B (CDK1B) (Homo sapiens, UniProt P06493). As to the kind of experiment: ADP-Glo kinase assay, CDK1/cyclin B. The format is biochemical. Conditions: apparent Ki from IC50, ADP-Glo. The procedure: (§1) The luminescent ADP-Glo™ assay, which measures the amount of ADP formed in a kinase reaction as described previously, was used to determine the kinase inhibition profile of the compounds. […] Ki values were calculated from their corresponding IC50 values (the concentrations of inhibitors that inhibit the kinase activity by 50%) and the Michaelis–Menten constant (Km) of ATP for each kinase using the Cheng–Prusoff equation as previously stated. In brief, 1 μL of each concentration of the test compounds was added to the respective wells, and to it were added 1 μL of the kinases and their respective substrates, diluted to the desired concentration in kinase reaction buffer ([…] tris base pH 7.5, 20 mM MgCl2, 0.4 µM dithiothreitol, and 0.1 mg/mL bovine serum albumin), and the pH was adjusted by adding 1 μL of a two-fold diluted kinase reaction buffer. To initiate the kinase activity, 1 μL of ATP solution (the concentration varies depending on the type of kinase under investigation) was added to each well, and the mixture was incubated at room temperature (20 to 22 °C) for 30–60 min depending on the kinase being tested. The reaction was then halted, 5 μL of the ADP-Glo reagent was added to each well (removing any unreacted ATP), and it was incubated at room temperature for 40 min. Then, to each well, 10 μL of the kinase detection reagent containing luciferin was added, which was incubated once more at room temperature in the dark for 30 min and the luminescence was measured by an EnVision® multi-label plate reader with an integration time of 1.5 s per well. Positive controls (the wells without the inhibitor) and negative or blank controls (the wells without the inhibitor and the enzyme, but with 1 × kinase reaction buffer) were also determined in 2.5% DMSO.
CDK1/cyclin B (CDK1B), sequence (P06493 whole entry): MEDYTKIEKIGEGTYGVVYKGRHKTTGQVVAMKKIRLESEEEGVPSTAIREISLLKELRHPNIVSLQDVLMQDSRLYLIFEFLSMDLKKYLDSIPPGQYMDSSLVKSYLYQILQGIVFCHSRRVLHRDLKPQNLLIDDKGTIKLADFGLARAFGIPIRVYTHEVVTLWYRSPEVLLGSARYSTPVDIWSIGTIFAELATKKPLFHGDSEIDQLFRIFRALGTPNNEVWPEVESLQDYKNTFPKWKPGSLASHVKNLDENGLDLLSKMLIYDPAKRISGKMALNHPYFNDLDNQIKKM
CDK1/cyclin B (CDK1B), sequence (P14635 whole entry partner): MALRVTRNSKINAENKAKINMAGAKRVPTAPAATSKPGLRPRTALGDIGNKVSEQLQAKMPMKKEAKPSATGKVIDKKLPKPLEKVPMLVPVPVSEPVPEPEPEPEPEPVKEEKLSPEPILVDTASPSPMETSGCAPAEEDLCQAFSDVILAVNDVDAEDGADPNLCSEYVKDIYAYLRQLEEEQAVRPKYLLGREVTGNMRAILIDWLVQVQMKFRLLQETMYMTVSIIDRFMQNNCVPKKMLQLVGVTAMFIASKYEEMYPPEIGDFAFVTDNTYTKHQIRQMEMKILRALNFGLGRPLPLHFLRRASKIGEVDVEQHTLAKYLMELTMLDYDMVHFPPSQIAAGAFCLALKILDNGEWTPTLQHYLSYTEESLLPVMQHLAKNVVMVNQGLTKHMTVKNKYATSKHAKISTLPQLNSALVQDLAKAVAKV
(§2) The percentage of kinase inhibition was determined using the following equation: % Residual kinase activity=Luminescence in the presence of inhibitor−Luminescence of blank control/Luminescence in the absence of inhibitor−Luminescence of blank control×100%%kinase inhbition=100%−%Residual kinase activity
(§3) Km is defined as the concentration of ATP or the substrate required to produce 50% of the maximal reaction rate in the kinase reaction. Therefore, since we used the concentration of ATP and the substrate at their Km values, Ki simply equals IC50/2 assuming these inhibitors are ATP-competitive based on the Cheng–Prusoff equation: Ki = IC50/(1 + ([ATP]/Km(ATP))) where [ATP] is the ATP concentration used for the IC50 determination and Km(ATP) for each kinase was determined experimentally.
(In general: In ADP-Glo the light output rises with the ADP produced.)

For the next assay, the target named is CDK2/cyclin E (CDK2E) (Homo sapiens, UniProt P24941). As to the kind of experiment: ADP-Glo kinase assay, CDK2/cyclin E. The format is biochemical. Conditions: apparent Ki from IC50, ADP-Glo. The protocol:
as §1, §2, §3

The test system of assay [1] is A2780 ovarian cancer cells. As to the kind of experiment: 72 h MTT antiproliferative assay, A2780. The class given is cell-based. The settings on record: Homo sapiens, A2780; 72 h MTT. From the text:
(§4) Cancer cell lines derived from leukemia (MV4-11 and U937), breast (MCF7 (Rb-positive) and MDA-MB-231(Rb-negative)), and ovarian (A2780, OVCAR5, OAW28, OV90, Cov318, and Cov504) cancers, and glioblastoma (U87, T98G and U251) were acquired from the cell bank at Drug Discovery and Development, University of South Australia, and cultured according to the American Type Culture Collection (ATCC) recommendation in Roswell Park Memorial Institute (RPMI)-1640, Dulbecco’s Modified Eagle’s Medium (DMEM), or Minimum Essential Media (MEM), with 10% fetal bovine serum (Sigma-Aldrich, Castle Hill, NSW, Australia) within a humidified incubator at 37 °C in the presence of 5% CO2.
(§5) The MTT (Life Technologies, Mulgrave, VIC, Australia) and resazurin (Sigma-Aldrich) assays were used to determine the antiproliferative activities of the compounds initially at 1 µM against the cancer cell lines stated above.

Another assay deals with MV4-11 leukemia cells. As to the kind of experiment: Cell viability assay (MTT/resazurin), MV4-11. Conditions: Homo sapiens, read-out: Antiproliferative Activity, GI50. The class given is cell-based.
Excerpt: as §4, §5
In general terms: The colour change of resazurin is a common sign of viable cells or microbes.

The test system of assay [2] is OVCAR5 ovarian cancer cells. As to the kind of experiment: Cell viability assay (MTT/resazurin), OVCAR5. Conditions: Homo sapiens, OVCAR-5, read-out: Antiproliferative Activity, GI50. The class given is cell-based.
Excerpt: as §4, §5

Assay [3] has as its system A2780 cells. As to the kind of experiment: Annexin V/PI apoptosis assay, A2780. The format is cell-based. Conditions: 48 h. The protocol:
Annexin V-fluorescein isothiocyanate (FITC) apoptosis detection kit I (consisting of a ten-time stock solution of binding buffer, FITC–annexin V, and PI staining solution) was used to determine the effect of the compounds on cancer cell survival as previously reported. Briefly, six-well plates (Sigma-Aldrich, NSW, Australia) were seeded with about 1–2 × 10^5 cells/well in 2 mL growth medium, incubated at 37 °C and 5% CO2 overnight, treated with various concentrations of the test compounds, and incubated for 48 h. The wells were collected by trypsinization, transferred into FACS tubes, washed twice with 1 × PBS, and centrifuged at 300× g for 5 min. The pellets were then suspended in 100 µL of 1 × binding buffer and incubated in the dark with 3 µL of PI and 3 µL of FITC-conjugated annexin V solutions for 15 min. Finally, 200 µL of binding buffer was added to each sample and analyzed by the CytoFLEX cytometer. The extent of apoptotic cell death was quantified as the sum of the percentages of early apoptotic cells (annexin V-positive and PI-negative) and late apoptotic cells (both annexin–V- and PI-positive) and presented graphically as a contour diagram relative to the untreated control.

Assay [4] deals with A2780 cells. As to the kind of experiment: Colony formation (crystal violet), A2780. The class given is cell-based. The settings on record: A2780, 10 days; 15 at 0.5 and 2 µM, CYC065 at 0.5 µM. The procedure:
(§6) Briefly, ovarian cancer cells (i.e., A2780, OVCAR5, and OV90) seeded in six-well plates were adhered for 6 h and treated with 15. The medium that contained the compound was then changed every 72 h. Ten days after treatment, the cells were washed with PBS, fixed, and stained with crystal violet staining solution (0.05% crystal violet, 1% formaldehyde, 1% PBS, and 1% ethanol), and colonies were quantified using ImageJ software (National Institute of Health, Maryland, USA), with data presented as percentages of the control cells.

In another assay the test system is OVCAR5 cells. As to the kind of experiment: Colony formation (crystal violet), OVCAR5. The format is cell-based. The settings on record: OVCAR5, 10 days; 15 at 0.5 and 2 µM, CYC065 at 0.5 µM. The protocol:
as §6

Take `Cn1cc(-c2nc(Nc3cn[nH]c3)ncc2Cl)cn1` [Compound 15, 5-Chloro-4-(1-methyl-1H-pyrazol-4-yl)-N-(1H-pyrazol-4-yl)pyrimidin-2-amine]: the values for the Ki at CDK1/cyclin B (CDK1B) and on CDK2/cyclin E (CDK2E) were 25 nM and 5 nM, respectively. Also, the figures for the GI50 (in assay [1]; in the assay on MV4-11 leukemia cells; in assay [2]) were 158 nM, 127 nM and 150 nM, respectively. Besides, the “apoptosis (annexin V positive, early + late)” value in the assay with A2780 cells [3] (A2780, 0.5 µM) is recorded as 47%; with A2780 cells [3] (A2780, 2 µM), 49%. For the same compound, in the assay with A2780 cells [3] (Homo sapiens, A2780, 0.5 µM, read-out: Q1-LL, viable cells), the viability at 0.5 µM stood at 52.7%. In addition, the viability at 2 µM in the assay with A2780 cells [3] (Homo sapiens, A2780, 2 µM, read-out: Q1-LL, viable cells) stood at 50.5%. Further, the “effect on colony formation” value with A2780 cells [4] and with OVCAR5 cells was “inhibited” throughout.
